Results published in PMC11230136 (Cell reports, 2024).

Experiments:
[1] = test system: pilocarpine-induced SE mice; test: Pilocarpine-induced status epilepticus
[2] = target: activated c-Abl immunoprecipitated from neurons (Rattus norvegicus, UniProt A0ABK0LKB8); test: In vitro phosphorylation kinase assay; type: biochemical; settings: pre-incubation with 5 μM inhibitor (controls)
hippocampal neurons = test: Apoptotic nuclei; type: cell-based, rat; settings: 1-h 100 μM NMDA, co-incubation with 5 μM inhibitor
[3] = In vivo toxicity / tolerability observation; parameters: species or system mouse; settings: diet 20, 67 or 200 ppm for 14 days
[4] = i.p. pre-treatment 12.5 mg/kg for 3 days, 60 min post pilocarpine
[5] = diet for 15 days (neurotinib 67 ppm, nilotinib 200 ppm), 60 min post pilocarpine

activated c-Abl immunoprecipitated from neurons, sequence (A0ABK0LKB8 1-1124): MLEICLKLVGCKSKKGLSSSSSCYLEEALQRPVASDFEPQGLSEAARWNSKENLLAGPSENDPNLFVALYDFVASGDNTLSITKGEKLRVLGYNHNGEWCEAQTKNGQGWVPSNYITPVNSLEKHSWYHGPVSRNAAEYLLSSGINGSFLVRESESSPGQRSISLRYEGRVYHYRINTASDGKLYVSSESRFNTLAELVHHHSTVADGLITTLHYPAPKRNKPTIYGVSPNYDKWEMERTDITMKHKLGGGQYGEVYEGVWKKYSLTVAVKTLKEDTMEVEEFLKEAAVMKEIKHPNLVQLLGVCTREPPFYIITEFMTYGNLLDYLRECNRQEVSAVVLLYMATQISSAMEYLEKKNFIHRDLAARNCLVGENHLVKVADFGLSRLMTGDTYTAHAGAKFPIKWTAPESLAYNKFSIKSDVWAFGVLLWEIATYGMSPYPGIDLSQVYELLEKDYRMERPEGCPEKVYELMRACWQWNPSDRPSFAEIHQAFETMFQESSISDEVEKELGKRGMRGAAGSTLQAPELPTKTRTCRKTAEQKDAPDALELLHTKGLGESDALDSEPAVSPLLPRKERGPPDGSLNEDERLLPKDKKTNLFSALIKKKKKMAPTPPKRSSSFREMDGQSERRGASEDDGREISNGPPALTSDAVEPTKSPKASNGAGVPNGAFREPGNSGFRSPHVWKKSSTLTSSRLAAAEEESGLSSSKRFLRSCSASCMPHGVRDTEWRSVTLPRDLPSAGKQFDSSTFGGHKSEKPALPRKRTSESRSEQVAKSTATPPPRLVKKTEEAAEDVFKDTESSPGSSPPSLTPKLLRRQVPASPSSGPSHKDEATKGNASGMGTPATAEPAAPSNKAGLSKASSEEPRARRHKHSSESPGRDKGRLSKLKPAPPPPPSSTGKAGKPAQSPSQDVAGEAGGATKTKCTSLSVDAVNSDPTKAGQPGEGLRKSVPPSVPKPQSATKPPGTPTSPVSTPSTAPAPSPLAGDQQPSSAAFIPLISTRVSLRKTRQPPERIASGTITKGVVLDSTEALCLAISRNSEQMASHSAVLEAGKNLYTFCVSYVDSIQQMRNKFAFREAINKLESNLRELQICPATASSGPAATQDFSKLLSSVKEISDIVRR

SMILES | Mice with SE [1, 4] [%] | Mice with single seizures but no SE [1, 4] [%] | Total mortality [1, 4] [%] | CRKII-GST phosphorylation [2] | apoptotic nuclei (Hoechst) (hippocampal neurons) | acute toxicity or changes in behavior [3] | Mice with SE [1, 5] [%] | Total mortality [1, 5] | Latency SE ([1]; diet for 15 days (neurotinib 67 ppm, nilotinib 200 ppm), mean ± SEM) [min]
Cc1ccc(NC(=O)c2ccc(CN3CCN(C)CC3)cc2)cc1Nc1nccc(-c2cccnc2)n1 [imatinib] | 68 | 29 | 36 | inhibits CRKII-GST phosphorylation | apoptosis reduction | – | – | – | –
Cc1cn(-c2cc(NC(=O)c3ccc(C)c(Nc4nccc(-c5cccnc5)n4)c3)cc(C(F)(F)F)c2)cn1 [nilotinib] | – | – | – | – | – | No signs of acute toxicity or changes in behavior | 70 | none | 32.6 ± 6.1
